# According to US8388953B2, “Method of increasing cathepsin B-induced cleavage of amyloid-β peptides” (The J. David Gladstone Institutes, priority 2006, dated 2013):
# Assays:
# CatB in N2A cells = test: N2A cells treated with Aβ peptides: CatB mRNA (quantitative RT-PCR) and CatB activity; assay type: cell-based, murine; conditions: 20 μM; for CatB enzymatic activities / CatB mRNA levels: nonaggregated peptide, 24 h
# Procedure: (§1) Unless otherwise noted, all cell culture supplies, medium, and antibiotics were from Invitrogen (Carlsbad, Calif.). The murine neuronal cell line N2A was maintained in Dulbecco's modified Eagle's medium (DMEM) with 10% heat-inactivated fetal bovine serum (FBS), 100 U/ml penicillin G, and 100 μg/ml streptomycin at 37° C. in a humidified atmosphere containing 5% CO2. Before treatment, the medium was replaced with Neurobasal A medium supplemented with N2, and the cells were treated with fresh Aβ1-42 or Aβ1-40 at various concentrations for 24 h.
# (§2) Aβ1-42 and Aβ1-40 were from rPeptide (Athens, Ga.). Aβ powders lyophilized with hexafluoroisopropanol were reconstituted in dry dimethylsulfoxide (Sigma) at a concentration of 5 mM. Aggregated Aβ1-42 was prepared based on protocols developed in previous studies (Dahlgren et al., 2002; Lambert et al., 1998). For protofibrillar Aβ1-42 preparations, DMEM/F-12 was added to achieve a final peptide concentration of 100 μM and incubated at 4° C. for 24 h. For fibrillar conditions, 10 mM HCl was added to achieve a final peptide concentration of 100 μM and incubated for 24 h at 37° C. For unaggregated conditions (fresh Aβ), the 5 mM Aβ in […] was diluted directly into cell-culture medium. For Aβ1-40 aggregation, Aβ1-40 was reconstituted in H2O at a concentration of 5 mg/ml, and incubated for one week at 37° C.
# (§3) CatB activities in N2A cells or in hippocampus of hAPP mice and their littermate controls were quantified with the Innozyme Cathepsin B Activity Assay Kit (EMD Biosciences), according to the manufacturer's instructions. Cells or hippocampi were lysed in lysis buffer in the absence of proteinase inhibitors, preactivated with 4 mM cysteine, and incubated with the synthetic substrate Z-Arg-Arg AMC at 37° C. for 30 min. Released free AMC was determined fluorometrically as above. The enzymatic activities inhibited by CA074 were defined as CatB-specific activities. Protein concentrations were measured with the BCA protein assay kit (Pierce) and used to normalize CatB activities.
# Expression of CatB was measured by quantitative RT-PCR. Total RNA in N2A cells was isolated with Trizol reagent (Invitrogen). After treatment with RNase-free DNase (Ambion) for 30 min at 37° C., total RNA (60 ng/ml) was reverse-transcribed with random hexamers and oligo d(T) primers. The expression of CatB relative to GAPDH was determined with SYBR green dye chemistry and an ABI Prism 7700 sequence detector (Applied Biosystems, Foster City, Calif.), as recommended by the manufacturer. Primer quality was verified by dissociation curve analysis, the slopes of standard curves, and reactions without RT. The following primers were used: mouse CatB (forward 5′-[…]-3′ (SEQ ID NO:7); reverse 5′-[…]-3′ (SEQ ID NO:8)) and mouse GAPDH (forward 5′-[…]-3′ (SEQ ID NO:9); reverse 5′-[…]-3′ (SEQ ID NO:10)).
# [1] = target: T1, purified CatB from human liver (Homo sapiens, UniProt P07858); test: Inhibition of CatB-induced Aβ1-42 cleavage by CA074 in the in vitro cleavage assay; assay type: biochemical
# T1 construct: purified CatB from human liver (Sigma); purchased Sigma; host or cells: human liver (tissue-purified)
# Procedure: (§4) Different amounts of purified CatB from human liver (Sigma) were preactivated with 4 mM cysteine at room temperature for 5 min in assay buffer, pH 6.0 or 7.0 after adjustment (Cathepsin B Activity Assay Kit, EMD Biosciences). Then, 20 ng of fresh, protofibrillar, or fibrillar Aβ1-42 was added and incubated at 37° C. for 120 min. All samples were run in parallel with and without the specific CatB inhibitor CA074. CatB-induced peptidase cleavage of Aβ1-42 was detected with mass spectrometry. Briefly, 5 μl of the reaction mixture was applied to an NP-20 normal-phase chip (Ciphergen Biosystems, Fremont, Calif.), and the spots were washed with water and air-dried. Twenty percent α-cyano-4-hydroxycinnamic acid in 50% acetonitrile, 0.5% trifluoroacetic acid (2×0.5 μl) was applied, and the chips were allowed to dry. Samples were analyzed in a PBS ITC SELDI-TOF mass spectrometer (Ciphergen) as an average of 160 shots for each spot. The system was calibrated daily with All-in-One peptide standards (Ciphergen) and synthetic Aβ1-42.
# (§5) The products were also analyzed by western blotting on acid-urea gels with an anti-Aβ antibody (3D6) as described (DeMattos et al., 2001; Esposito et al., 2004) or on a Tricine SDS-PAGE. Briefly, 10 μl of the reaction mixture were resolved on 16% tricine gels and transferred to nitrocellulose membranes. Membranes were labeled with 21F12 (1:2000, Elan Pharmaceuticals), an antibody specific for Aβ1-42, to detect low MW Aβ1-42 oligomers. Since 21F12 was unable to detect higher MW assemblies, 3D6 (1:2000, Elan) was also used for immunoblotting. After incubation with an HRP-conjugated sheep anti-mouse IgG (1:2000; Amersham) secondary antibody, blots were developed with an ECL system (Perkin Elmer).
# [2] = system: cathepsin B activity in neuronal cells (N2a); test: CatB activity assay in N2a cells treated with indomethacin; assay type: cell-based, murine; conditions: indomethacin 25 μM-75 μM, 18-24 h
# Procedure: as §1, §3
# Neurobiatoma cell N2a cells were treated with indomethacin (25 μM-75 μM) for 18-24 h before being harvested for CatB activity assay.
# Aβ1-42 = test: In vitro cleavage assay of Aβ1-42 by purified CatB (SELDI-TOF MS, western blot, electron microscopy); assay type: biochemical
# Procedure: as §2
# Aβ1-42 and Aβ1-40 samples were characterized by negative-staining electron microscopy (JEOL 1230, Peabody, Mass.). Samples were prepared with “matured” carbon-coated grids and 2% potassium phosphotungstate, pH 6.5, using the drop method (Hamilton et al., 1980), and examined at 80 KV with a condenser aperture of 200 μm and an objective aperture of 50 μm. Images were obtained with a Gatan Ultrascan USC1000 digital camera (Gatan, Warrendale, Pa.).
# as §4, §5
compound,measurement,setting,value
Aβ1-42: amyloid-β peptide 1-42 from rPeptide,CatB enzymatic activities,CatB in N2A cells,markedly increased
same,CatB mRNA levels,CatB in N2A cells,markedly increased
CCCNC(=O)[C@H]1O[C@@H]1C(=O)N[C@H](C(=O)N1CCC[C@H]1C(=O)O)[C@@H](C)CC [CA074],effect of the inhibitor on CatB-induced decrease of Aβ assemblies,[1]; Tricine SDS-PAGE,significantly diminished such effects
same,effect of the inhibitor on CatB-induced reduction of Aβ1-42 fibrils,[1]; electron microscopy,inhibition with CA074
same,CatB-induced truncations of Aβ1-42 in the presence of the inhibitor,"[1]; pH 6.0, SELDI-TOF",No truncations occurred
Aβ1-40: amyloid-β peptide 1-40 from rPeptide; tested nonaggregated and preaggregated,CatB enzymatic activities,CatB in N2A cells,little or no effect
same,CatB mRNA levels,CatB in N2A cells,little or no effect
same,CatB activity,CatB in N2A cells; preaggregated peptide,modest but significant increase
COc1ccc2c(c1)c(CC(=O)O)c(C)n2C(=O)c1ccc(Cl)cc1 [indomethacin],CatB activity,[2],significant increase in CatB activity in a dose-dependent manner
"CatB: purified CatB from human liver (Sigma), preactivated with cysteine",amounts of high-molecular-weight Aβ assemblies,"Aβ1-42; Tricine SDS-PAGE, CatB 1-2 μg/ml",marked decrease
same,levels of low-MW Aβ1-42 oligomers and monomers,"Aβ1-42; Tricine SDS-PAGE, antibody specific for Aβ1-42",also reduced
same,proteolytic products from fresh (nonaggregated) Aβ1-42,"Aβ1-42; cell-free, pH 6.0, CatB 100-2500 ng/ml, SELDI-TOF","dose-dependent generation of Aβ1-40, Aβ1-38, and Aβ1-33"
same,amount of fibrillar structures of preformed Aβ1-42 fibrils,Aβ1-42; electron microscopy,did reduce the amount of fibrillar structures
same,"ability to cleave Aβ, especially nonaggregated (fresh) Aβ",Aβ1-42; neutral pH (~7.0),markedly reduced
same,cleavage of protofibrillar Aβ1-42,Aβ1-42; pH 6.0,cleaved by CatB as efficiently as nonaggregated preparations
